This passage reports mutagenic call results from PubChem BioAssay AID1259407 (Chemical Carcinogenesis Research Information System (CCRIS), 2018).

The source made the active and inactive calls. How the calls were made is not given here.

This series concerns CCRIS mutagenicity, Ames/micronucleus/aberration tests. Briefly: CCRIS mutagenicity studies.
Where [1] appears, read: Test System: AMES SALMONELLA TYPHIMURIUM, Strain/Indicator: TA97, Metabolic Activation: NONE, Method: PREINCUBATION
The mark [2] stands for this setting: Test System: AMES SALMONELLA TYPHIMURIUM, Strain/Indicator: TA98, Metabolic Activation: HAMSTER, LIVER, S-9, AROCLOR 1254 (10%), Method: PREINCUBATION
Setting [3] is: Test System: AMES SALMONELLA TYPHIMURIUM, Strain/Indicator: TA98, Metabolic Activation: NONE, Method: PREINCUBATION
[4] abbreviates: Test System: AMES SALMONELLA TYPHIMURIUM, Strain/Indicator: TA98, Metabolic Activation: RAT, LIVER, S-9, AROCLOR 1254 (10%), Method: PREINCUBATION
Where [5] appears, read: Test System: AMES SALMONELLA TYPHIMURIUM, Strain/Indicator: TA1535, Metabolic Activation: HAMSTER, LIVER, S-9, AROCLOR 1254 (10%), Method: PREINCUBATION
The mark [6] stands for this setting: Test System: AMES SALMONELLA TYPHIMURIUM, Strain/Indicator: TA1535, Metabolic Activation: NONE, Method: PREINCUBATION
[7] abbreviates: Test System: AMES SALMONELLA TYPHIMURIUM, Strain/Indicator: TA1535, Metabolic Activation: RAT, LIVER, S-9, AROCLOR 1254 (10%), Method: PREINCUBATION
The mark [8] stands for this setting: Test System: AMES SALMONELLA TYPHIMURIUM, Strain/Indicator: TA98, Metabolic Activation: NONE, Method: STANDARD PLATE.

With `CC(CN1c2ccccc2Sc2ccccc21)N(C)C` (stereo not drawn), the mutagenic call is “inactive; negative” (End Point: IN VITRO CHROMOSOMAL ABERRATIONS, Test System: CHINESE HAMSTER OVARY CELLS, Metabolic Activation: NONE); “inactive; negative” (End Point: IN VITRO CHROMOSOMAL ABERRATIONS, Test System: CHINESE HAMSTER OVARY CELLS, Metabolic Activation: RAT, LIVER, S-9, AROCLOR 1254); “inactive; negative” (Test System: AMES SALMONELLA TYPHIMURIUM, Strain/Indicator: TA97, Metabolic Activation: HAMSTER, LIVER, S-9, AROCLOR 1254 (10 OR 30%), Method: PREINCUBATION); “inactive; negative” under setting [1]; “inactive; negative” (Test System: AMES SALMONELLA TYPHIMURIUM, Strain/Indicator: TA97, Metabolic Activation: RAT, LIVER, S-9, AROCLOR 1254 (10 OR 30%), Method: PREINCUBATION); “inactive; negative” under setting [2]. The mutagenic call was “inactive; negative” (Test System: AMES SALMONELLA TYPHIMURIUM, Strain/Indicator: TA98, Metabolic Activation: HAMSTER, LIVER, S-9, AROCLOR 1254 (30%), Method: PREINCUBATION); “inactive; negative” under setting [3]; “inactive; negative” (Test System: AMES SALMONELLA TYPHIMURIUM, Strain/Indicator: TA98, Metabolic Activation: NONE, Method: SPOT TEST); “inactive; negative” under setting [4]; “inactive; negative” (Test System: AMES SALMONELLA TYPHIMURIUM, Strain/Indicator: TA98, Metabolic Activation: RAT, LIVER, S-9, AROCLOR 1254 (30%), Method: PREINCUBATION); “inactive; negative” (Test System: AMES SALMONELLA TYPHIMURIUM, Strain/Indicator: TA100, Metabolic Activation: HAMSTER, LIVER, S-9, AROCLOR 1254 (10%), Method: PREINCUBATION). In addition, the mutagenic call is, setting by setting: (Test System: AMES SALMONELLA TYPHIMURIUM, Strain/Indicator: TA100, Metabolic Activation: HAMSTER, LIVER, S-9, AROCLOR 1254 (30%), Method: PREINCUBATION) “inactive; negative”; (Test System: AMES SALMONELLA TYPHIMURIUM, Strain/Indicator: TA100, Metabolic Activation: NONE, Method: PREINCUBATION) “inactive; negative”; (Test System: AMES SALMONELLA TYPHIMURIUM, Strain/Indicator: TA100, Metabolic Activation: RAT, LIVER, S-9, AROCLOR 1254 (10%), Method: PREINCUBATION) “inactive; negative”; (Test System: AMES SALMONELLA TYPHIMURIUM, Strain/Indicator: TA100, Metabolic Activation: RAT, LIVER, S-9, AROCLOR 1254 (30%), Method: PREINCUBATION) “inactive; negative”; under setting [5], “inactive; negative”; (Test System: AMES SALMONELLA TYPHIMURIUM, Strain/Indicator: TA1535, Metabolic Activation: HAMSTER, LIVER, S-9, AROCLOR 1254 (30%), Method: PREINCUBATION) “inactive; negative”. Moreover, the mutagenic call under setting [6] is “inactive; negative”; the mutagenic call under setting [7] was “inactive; negative”; the mutagenic call (Test System: AMES SALMONELLA TYPHIMURIUM, Strain/Indicator: TA1535, Metabolic Activation: RAT, LIVER, S-9, AROCLOR 1254 (30%), Method: PREINCUBATION) is “inactive; negative”; the mutagenic call (Test System: AMES SALMONELLA TYPHIMURIUM, Strain/Indicator: TA1537, Metabolic Activation: HAMSTER, LIVER, S-9, AROCLOR 1254 (10%), Method: PREINCUBATION) was “inactive; negative”; the mutagenic call (Test System: AMES SALMONELLA TYPHIMURIUM, Strain/Indicator: TA1537, Metabolic Activation: NONE, Method: PREINCUBATION) was “inactive; negative”; the mutagenic call (Test System: AMES SALMONELLA TYPHIMURIUM, Strain/Indicator: TA1537, Metabolic Activation: RAT, LIVER, S-9, AROCLOR 1254 (10%), Method: PREINCUBATION) is “inactive; negative”. Also, the mutagenic call is “inactive; negative” (Test System: CHINESE HAMSTER V-79, Strain/Indicator: V-79/6-THIOGUANINE, Metabolic Activation: NONE) and “inactive; negative” (Test System: CHINESE HAMSTER V-79, Strain/Indicator: V-79/OUABAIN, Metabolic Activation: NONE).
`c1ccc(-c2nc3ccccc3o2)cc1`: the mutagenic call under setting [8] is “inactive; negative” and the mutagenic call (Test System: AMES SALMONELLA TYPHIMURIUM, Strain/Indicator: TA98, Metabolic Activation: S-9, Method: STANDARD PLATE) is “inactive; negative”.
In the case of `Nc1cc2c(O)c(N=Nc3ccc(N=Nc4ccc(S(=O)(=O)O)cc4)c4ccc(S(=O)O)cc34)c(S(=O)(=O)O)cc2cc1S(=O)(=O)O`, the mutagenic call by setting is: under setting [8], “inactive; negative”; (Test System: AMES SALMONELLA TYPHIMURIUM, Strain/Indicator: TA98, Metabolic Activation: RAT, LIVER, S-9, AROCLOR 1254, Method: STANDARD PLATE) “inactive; negative”; (Test System: AMES SALMONELLA TYPHIMURIUM, Strain/Indicator: TA100, Metabolic Activation: NONE, Method: STANDARD PLATE) “inactive; negative”; (Test System: AMES SALMONELLA TYPHIMURIUM, Strain/Indicator: TA100, Metabolic Activation: RAT, LIVER, S-9, AROCLOR 1254, Method: STANDARD PLATE) “inactive; negative”; (Test System: AMES SALMONELLA TYPHIMURIUM, Strain/Indicator: TA1535, Metabolic Activation: NONE, Method: STANDARD PLATE) “inactive; negative”; (Test System: AMES SALMONELLA TYPHIMURIUM, Strain/Indicator: TA1535, Metabolic Activation: RAT, LIVER, S-9, AROCLOR 1254, Method: STANDARD PLATE) “inactive; negative”. Also, the mutagenic call is, setting by setting: (Test System: AMES SALMONELLA TYPHIMURIUM, Strain/Indicator: TA1537, Metabolic Activation: NONE, Method: STANDARD PLATE) “inactive; negative”; (Test System: AMES SALMONELLA TYPHIMURIUM, Strain/Indicator: TA1537, Metabolic Activation: RAT, LIVER, S-9, AROCLOR 1254, Method: STANDARD PLATE) “inactive; negative”; (Test System: AMES SALMONELLA TYPHIMURIUM, Strain/Indicator: TA1538, Metabolic Activation: NONE, Method: STANDARD PLATE) “inactive; negative”; (Test System: AMES SALMONELLA TYPHIMURIUM, Strain/Indicator: TA1538, Metabolic Activation: RAT, LIVER, S-9, AROCLOR 1254, Method: STANDARD PLATE) “inactive; negative”.
Consider `O=CC(Cl)(Cl)Cl`, for which the mutagenic call (Test System: AMES SALMONELLA TYPHIMURIUM, Strain/Indicator: TA97, Metabolic Activation: HAMSTER, LIVER, S-9, AROCLOR 1254 (10%), Method: PREINCUBATION) was “inactive; negative”; the mutagenic call under setting [1] was “inactive; negative”; the mutagenic call (Test System: AMES SALMONELLA TYPHIMURIUM, Strain/Indicator: TA97, Metabolic Activation: RAT, LIVER, S-9, AROCLOR 1254 (10%), Method: PREINCUBATION) was “inactive; negative”; the mutagenic call under setting [2] is “inactive; negative”; the mutagenic call under setting [3] was “inactive; negative”; the mutagenic call under setting [4] is “inactive; negative”. In addition, the mutagenic call (Test System: AMES SALMONELLA TYPHIMURIUM, Strain/Indicator: TA100, Metabolic Activation: HAMSTER, LIVER, S-9, AROCLOR 1254 (5, 10 OR 30%), Method: PREINCUBATION) was “inactive; negative”; the mutagenic call (Test System: AMES SALMONELLA TYPHIMURIUM, Strain/Indicator: TA100, Metabolic Activation: RAT, LIVER, S-9, AROCLOR 1254 (5, 10 OR 30%), Method: PREINCUBATION) was “inactive; negative”; the mutagenic call (Test System: AMES SALMONELLA TYPHIMURIUM, Strain/Indicator: TA100, Metabolic Activation: RAT, LIVER, S-9, Method: PREINCUBATION) is “active; positive”; the mutagenic call under setting [5] is “inactive; negative”; the mutagenic call under setting [6] was “inactive; negative”; the mutagenic call under setting [7] was “inactive; negative”.
As to `N#CC1CO1` (stereo not drawn), the mutagenic call (Test System: UDS HUMAN MAMMARY EPITHELIAL CELLS, Strain/Indicator: THY INCORP, Metabolic Activation: NONE, Method: AUTORADIOGRAPHY) is “active; positive” and the mutagenic call (Test System: UDS PRIMARY RAT HEPATOCYTES, Strain/Indicator: THY INCORP, Metabolic Activation: NONE, Method: AUTORADIOGRAPHY) was “inactive; negative”.
For the compound `CC1(C)[C@H](C(=O)O[C@H](C#N)c2cccc(Oc3ccccc3)c2)[C@@H]1C=C(Cl)Cl`, for the setting “End Point: In vitro micronucleus, Test System: Human peripheral blood lymphocytes”, the mutagenic call is “active; positive. commercial product containing 10% alpha-cypermethrin in xylene emulsi”.
